Measurements: patent US10793589B2, “Resorcinarene-based amphipathic compound and use thereof” (Industry-University Cooperation Foundation Hanyang …, priority 2016, dated 2020)

How the values were obtained:
[1] = Critical micelle concentration by fluorescence dye diphenylhexatriene (DPH); type: physicochemical; details: DPH fluorescence
Description: A method of measuring the CMC is not particularly limited and may be any method generally known in the art. For example, the CMC may be measured according to a fluorescence staining method using diphenylhexatriene (DPH).
(§1) Specifically, critical micelle concentrations (CMCs) were measured using a fluorescence dye, diphenylhexatriene (DPH), and hydrodynamic radii (Rh) of micelles formed of each compound (1.0 wt %) were measured by a dynamic light scattering (DLS) experiment. Measured results are shown in Table 1 in comparison with values of DDM as an existing amphipathic molecule (detergent).

[2] = Hydrodynamic radius and size distribution of micelles by dynamic light scattering (DLS); type: physicochemical; details: compound 1.0 wt %
Description: A method of measuring the radius of a micelle is not particularly limited and may be any method generally known in the art. For example, the radius may be measured by a dynamic light scattering (DLS) experiment.
as §1
Meanwhile, size distributions of the micelles formed by RGAs and RMAs were measured using DLS.

[3] = system: leucine transporter (LeuT); assay: LeuT structural stability, [3H]-Leu binding by scintillation proximity assay (SPA); type: biochemical, Aquifex aeolicus
Description: (§2) FIGS. 7A and 7B are a set of graphs illustrating a result of measuring the structural stability of a leucine transporter (LeuT) solubilized in RGAs or DDM evaluated at CMC+0.04 wt % (a) or CMC+0.2 wt % (b). Protein stability was determined by measuring the ability of the transporter to bind a radiolabeled ligand ([3H]-Leu) via scintillation proximity assay (SPA). The substrate binding ability of LeuT was measured at regular intervals during 10 days of incubation of the protein at room temperature in the presence of individual amphipathic compounds.
as §2, with “8A” for “7A”, “8B” for “7B”, “RMAs” for “RGAs”
An experiment was carried out to measure the structural stability of a leucine transporter (LeuT) caused by RGAs and RMAs. The concentrations of individual amphipathic compounds were (a) CMC+0.04 wt % or (b) CMC+0.2 wt %, and the substrate binding characteristic of LeuT was measured by scintillation proximity assay (SPA) using [^3H]-Leu. […]
Specifically, wild type LeuT derived from Aquifex aeolicus which is a thermophilic bacterium was purified according to the method described in the paper (Nature 1998, 392, 353-358) written by G. Deckert et al. LeuT was expressed in E. coli C41 (DE3) transformed with pET16b encoding a C-terminal 8×His-tagged transporter (an expression plasmid was provided by Dr. E. Gouaux (Vollum Institute, Portland, Oreg., USA)). […] The protein samples were stored at room temperature for 10 days and centrifuged at designated time points, and protein characteristics were determined by measuring the binding capacity of [^3H]-Leucine using SPA. […]

[4] = molecular target: T1, human β2 adrenergic receptor (β2AR) (Homo sapiens, UniProt P07550); assay: β2AR stability, [3H]-dihydroalprenolol (DHA) ligand binding assay; type: biochemical; details: for maintaining the ligand binding characteristic of the receptor compared to DDM: 0 hour, CMC+0.2 wt %, [3H]-DHA
T1 construct: made in house
Description: (§3) FIGS. 10A and 10B illustrate a result of measuring the effect of RGAs on the stability of β2AR after (a) 0 hour and (b) over time. Protein-ligand binding characteristics were measured via ligand binding assay using [^3H]-dihydroalprenolol (DHA), and the measurement was carried out by sampling a protein sample at regular intervals during 2 days of storage at room temperature.
as §3, with “12A” for “10A”, “12B” for “10B”, “RMAs” for “RGAs”
An experiment was carried out to measure the structural stability of a human (32 adrenergic receptor (β2AR) and a G protein-coupled receptor (GPCR) caused by RGAs and RMAs. That is, a receptor purified with DDM was diluted with a buffer solution containing only each RGA and RMA without cholesteryl hemisuccinate (CHS) or a buffer solution containing CHS and DDM. The final concentration of the compound was CMC+0.2 wt %, and the ligand binding characteristic of the receptor was measured using [^3H]-dihydroalprenolol ([^3H]-DHA) binding.
Specifically, radioligand binding assay was carried out using the following method. β2AR was purified using 0.1% DDM according to the method described in a paper (Science, 2007, 318, 1266-1273.) written by D. M. Rosenbaum et al. and finally concentrated to about 10 mg/ml (about 200 μM). The β2AR purified with DDM was used to prepare a master binding mixture containing 10 nM [^3H]-dihydroalprenolol (DHA) supplemented with 0.5 mg/ml BSA in a 0.2% amphipathic compound (DDM, RGAs or RMAs). The receptor purified with DDM, RGAs or RMAs was incubated with 10 nM [^3H]-DHA at room temperature for 30 minutes. The mixture was loaded into a G-50 column, the flow-through was collected with 1 ml of a binding buffer (20 mM HEPES pH 7.5, 100 mM NaCl, supplemented with 0.5 mg/ml BSA and 20×CMC individual amphipathic compound, and the G-50 column was further filled with 15 ml of a scintillation fluid. Receptor-bound [^3H]-DHA was measured with a scintillation counter (Beckman). The binding capacity of [^3H]-DHA was measured and shown in a column graph. Each experiment was performed in triplicate.

T1 sequence (P07550 whole entry): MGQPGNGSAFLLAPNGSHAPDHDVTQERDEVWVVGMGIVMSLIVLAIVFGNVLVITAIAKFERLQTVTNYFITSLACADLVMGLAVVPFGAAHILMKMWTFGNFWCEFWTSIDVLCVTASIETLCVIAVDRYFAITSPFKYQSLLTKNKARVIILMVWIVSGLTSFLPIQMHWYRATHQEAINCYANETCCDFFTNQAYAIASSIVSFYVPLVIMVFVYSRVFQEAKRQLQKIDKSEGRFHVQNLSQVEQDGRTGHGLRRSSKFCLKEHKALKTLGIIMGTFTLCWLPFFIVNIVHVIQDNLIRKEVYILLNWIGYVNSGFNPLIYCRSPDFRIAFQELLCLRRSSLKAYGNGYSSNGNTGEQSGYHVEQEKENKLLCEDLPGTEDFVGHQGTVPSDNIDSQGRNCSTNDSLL

CMC [1] | CMC (wt %) [1] | Rh (nm), hydrodynamic radius of micelles [2] | maintaining the ligand binding characteristic of the receptor compared to DDM [4] | Structure (SMILES) | LeuT stabilization as concentration of compound increased ([3]; CMC+0.04 wt % versus CMC+0.2 wt %) | effect of maintaining the substrate binding characteristic of LeuT ([3]; CMC+0.2 wt %, 10 days at room temperature) | ability to maintain the ligand binding of the receptor over time compared to DDM ([4]; 2 days at room temperature, early stage (0 to 12 h))
~10 µM | ~0.025 wt % | 2.8 ± 0.1 nm | inferior to DDM | CCCCCCC[C@H]1c2cc(c(OCCO[C@@H]3OC(CO)[C@@H](O)[C@H](O)C3O)cc2OCCO[C@@H]2OC(CO)[C@@H](O)[C@H](O)C2O)[C@H](CCCCCCC)c2cc(c(OCCO[C@@H]3OC(CO)[C@@H](O)[C@H](O)C3O)cc2OCCO[C@@H]2OC(CO)[C@@H](O)[C@H](O)C2O)[C@@H](CCCCCCC)c2cc(c(OCCO[C@@H]3OC(CO)[C@@H](O)[C@H](O)C3O)cc2OCCO[C@@H]2OC(CO)[C@@H](O)[C@H](O)C2O)[C@@H](CCCCCCC)c2cc1c(OCCO[C@@H]1OC(CO)[C@@H](O)[C@H](O)C1O)cc2OCCO[C@@H]1OC(CO)[C@@H](O)[C@H](O)C1O (some centres unmarked) [RGA-C8] | enhanced effect as concentration increased | highest effect of maintaining the substrate binding characteristic of LeuT | –
~5 µM | ~0.013 wt % | 3.5 ± 0.2 nm | – | CCCCCCCCC[C@H]1c2cc(c(OCCO[C@@H]3OC(CO)[C@@H](O)[C@H](O)C3O)cc2OCCO[C@@H]2OC(CO)[C@@H](O)[C@H](O)C2O)[C@H](CCCCCCCCC)c2cc(c(OCCO[C@@H]3OC(CO)[C@@H](O)[C@H](O)C3O)cc2OCCO[C@@H]2OC(CO)[C@@H](O)[C@H](O)C2O)[C@@H](CCCCCCCCC)c2cc(c(OCCO[C@@H]3OC(CO)[C@@H](O)[C@H](O)C3O)cc2OCCO[C@@H]2OC(CO)[C@@H](O)[C@H](O)C2O)[C@@H](CCCCCCCCC)c2cc1c(OCCO[C@@H]1OC(CO)[C@@H](O)[C@H](O)C1O)cc2OCCO[C@@H]1OC(CO)[C@@H](O)[C@H](O)C1O (some centres unmarked) [RGA-C10] | – | – | –
~2.5 µM | ~0.0069 wt % | 3.0 ± 0.2 nm | superior to DDM | CCCCCCCCCCC[C@H]1c2cc(c(OCCO[C@@H]3OC(CO)[C@@H](O)[C@H](O)C3O)cc2OCCO[C@@H]2OC(CO)[C@@H](O)[C@H](O)C2O)[C@H](CCCCCCCCCCC)c2cc(c(OCCO[C@@H]3OC(CO)[C@@H](O)[C@H](O)C3O)cc2OCCO[C@@H]2OC(CO)[C@@H](O)[C@H](O)C2O)[C@@H](CCCCCCCCCCC)c2cc(c(OCCO[C@@H]3OC(CO)[C@@H](O)[C@H](O)C3O)cc2OCCO[C@@H]2OC(CO)[C@@H](O)[C@H](O)C2O)[C@@H](CCCCCCCCCCC)c2cc1c(OCCO[C@@H]1OC(CO)[C@@H](O)[C@H](O)C1O)cc2OCCO[C@@H]1OC(CO)[C@@H](O)[C@H](O)C1O (some centres unmarked) [RGA-C12] | – | – | inferior ability to maintain the ligand binding of the receptor compared to DDM
